Assay results taken from the RepoRT retention time repository (doi:10.1021/acs.analchem.2c02893).

Test: RP, Thermo Scientific Acclaim RSLC 120 C18, 100 × 2.1 mm, 2.2 µm, 30 °C, 0.2 mL/min, estimated dead time 1.1 min; A: 90% water + 10% methanol + 0.01% formic acid + 5 mM ammonium formate, pH 3.61; B: methanol + 0.01% formic acid + 5 mM ammonium formate, pH 3.61; gradient (min/%B) 0/1 1/1 2/39 13/99.9 15/99.9 15.1/1 20.1/1
Conditions: stereoisomer not certain

| LC retention time | SMILES |
| --- | --- |
| 7.63 min | OC(CCN1CCCCC1)(c1ccccc1)C1CC2C=CC1C2 (stereo not given) [Biperidene] |
| 6.82 min | NS(=O)(=O)c1cc2c(cc1C(F)(F)F)NC(Cc1ccccc1)NS2(=O)=O (stereo not given) [Bendroflumethiazide] |
| 5.29 min | Cc1nnc(-c2ccccc2)c(=O)[nH]1 [Metamitron-desamino] |
| 12.7 min | O=C(NC(CO)C(O)c1ccc([N+](=O)[O-])cc1)C(Cl)Cl (stereo not given) [CAF-3] |
| 9.09 min | CCNc1nc(Cl)nc(NC(C)CC)n1 (stereo not given) [Sebuthylazine] |
| 10.7 min | CCOC(=O)C1=NOC(c2ccccc2)(c2ccccc2)C1 [Isoxadifen-ethyl] |
| 7.01 min | CCCc1nn(C)c2c(=O)[nH]c(-c3cc(C(=O)CN4CCN(CC)CC4)ccc3OCC)nc12 [Acetildenafil] |
| 9.85 min | CCOC(=O)C=C1SC(N2CCCCC2)C(=O)N1CC (stereo not given) [Piprozolin] |
| 4.69 min | CN(Cc1nc2c(N)nc(N)nc2[nH]c1=O)c1ccc(C(=O)NC(CCC(=O)O)C(=O)O)cc1 (stereo not given) [7-Hydroxymethotrexat] |
| 7.86 min | CN1CCC(=C2c3ccccc3CCc3sccc32)CC1 [Pizotifen] |
| 6.14 min | CNCCCC(C#N)(c1ccc(OC)c(OC)c1)C(C)C (stereo not given) [D617 (met. of verapamil)] |
| 11.5 min | COC(=O)C(C)Oc1cc(Cl)c(Cl)cc1Cl (stereo not given) [Fenoprop-methylester  (Silvex-methyester)] |
| 6.18 min | CCCCN1CCCCC1C(=O)Nc1c(C)cccc1C (stereo not given) [Bupivacaine] |
| 3.27 min | Nc1cccc2cc(S(=O)(=O)O)ccc12 [5-Aminonaphthalene-2-sulfonic acid] |
| 13.4 min | COC1CC(OC2C(C)OC(OC3C(C)=CCC4CC(CC5(C=CC(C)C(C(C)C)O5)O4)OC(=O)C4C=C(C)C(O)C5OCC(=CC=CC3C)C45O)CC2OC)OC(C)C1O (stereo not given) [AvermectinB1b (Abamectin)] |
| 6.7 min | Nc1ncnc2c1ncn2Cc1c(F)cccc1Cl [Arprinocid] |

| LC retention time | SMILES |
| --- | --- |
| 9.9 min | CC(C)(C)NC(=O)C1CCC2C3CCC4NC(=O)C=CC4(C)C3CCC12C (stereo not given) [Finasteride] |
| 1.93 min | NC(N)=NS(=O)(=O)c1ccc(N)cc1 [Sulfaguanidine] |
| 4.59 min | CC(CS)C(=O)N1CCCC1C(=O)O (stereo not given) [Captopril] |
| 9.46 min | CCCCOC(=O)c1ccc(O)cc1 [Butylparaben] |
| 7.72 min | CC(=O)c1ccc(S(=O)(=O)NC(=O)NC2CCCCC2)cc1 [Acetohexamide] |
| 9.01 min | CC1(C)OC2CC3C4CC(F)C5=CC(=O)C=CC5(C)C4C(O)CC3(C)C2(C(=O)CO)O1 (stereo not given) [Flunisolide] |
| 4.77 min | Nc1c2c(nc3ccccc13)CCCC2 [Tacrine] |
| 9.55 min | OCCN1CCN(CCCN2c3ccccc3Sc3ccc(Cl)cc32)CC1 [Perphenazine] |
| 4.99 min | OCCOCCN1CCN(C2=Nc3ccc(O)cc3Sc3ccccc32)CC1 [Quetiapine-Hydroxy] |
| 4.23 min | CCN(CC)C(=O)C1C=C2c3cccc4c3C(O)(CC2N(C)C1)C(=O)N4 (stereo not given) [2-Oxo-3-hydroxy-LSD] |
| 5.28 min | CC(=O)Nc1ccc(S(=O)(=O)Nc2cc(C)on2)cc1 [Sulfamethoxazole-N4-Acetyl  (Impurity A)] |
| 12.6 min | CCCCCCCCCCCCCC[N+](C)(C)[O-] [N,N-Dimethyltetradecylamine-N-oxide] |
| 3.62 min | C=CCN1CCCC1CNC(=O)c1cc2n[nH]nc2cc1OC (stereo not given) [Alizapride] |
| 9.35 min | CC(=O)CC(c1ccccc1)c1c(O)c2ccccc2oc1=O (stereo not given) [Warfarin] |
| 5.54 min | Cc1cccc(C)c1N(Cn1cccn1)C(=O)CS(C)=O (stereo not given) [Metazachlor BH 479-11] |

The next lines start with the compound.

| SMILES | LC retention time |
| --- | --- |
| O=C1c2ccccc2C(=O)C1C(=O)C(c1ccccc1)c1ccc(Cl)cc1 (stereo not given) [Chlorophacinone] | 9.74 min |
| CCCN(CCC)c1c([N+](=O)[O-])cc(S(N)(=O)=O)cc1[N+](=O)[O-] [Oryzalin] | 10.3 min |
| CCN(CC)C(=O)NC1C=C2c3cccc4[nH]cc(c34)CC2N(C)C1 (stereo not given) [Lisuride] | 5.92 min |
| CCCCCn1cc(C(=O)CC(C)(C)C(C)(C)O)c2ccccc21 [HTMPIPO-4] | 11.6 min |
| CNC(=O)Oc1cccc2ccccc12 [Carbaryl] | 7.46 min |
| CSc1nc(NC(C)C)nc(NC(C)C)n1 [Prometryn] | 10.1 min |
| CC(Oc1ccc(Oc2cnc3cc(Cl)ccc3n2)cc1)C(=O)O (stereo not given) [Quizalofop] | 9.62 min |
| CNCC1CCCCC1(O)c1cccc(OC)c1 (stereo not given) [Tramadol-Nor (Tramadol-N-desmethyl)] | 5.3 min |
| NCC(O)c1cccc(O)c1 (stereo not given) [Fenefrine-Nor] | 1.81 min |
| CNC(C)Cc1ccc(O)c(O)c1 (stereo not given) [HHMA] | 2.59 min |
| CNC(=O)ON=CC(C)(C)S(C)=O (stereo not given) [Aldicarb-sulfoxide] | 3.5 min |
| O=C(Nc1ccc(F)cc1F)c1cccnc1Oc1cccc(C(F)(F)F)c1 [Diflufenican] | 11.7 min |
| CNC(=O)c1cc(Cl)cc(C)c1NC(=O)c1cc(Br)nn1-c1ncccc1Cl [Chlorantraniliprole] | 8.7 min |
| C=C1CC2C(CCC3(C)C(=O)CCC23)C2(C)C=CC(=O)C=C12 (stereo not given) [Exemestane] | 9.03 min |
| CC12CCC(=O)C=C1CCC1C2CCC2(C)C(OC(=O)c3ccccc3)CCC12 (stereo not given) [Testosterone benzoate] | 13.8 min |
| COP(=S)(OC)SCn1nnc2ccccc2c1=O [Azinphos-methyl (Guthion)] | 8.89 min |
| COC1CC(CC2CCC(C)C(C(C)C(=O)O)O2)OC2(OC(C)(C3CCC(C)(C4OC(C5OC(O)(CO)C(C)CC5C)CC4C)O3)CC2C)C1C (stereo not given) [Nigericin] | 13.9 min |
| CNC(=O)Oc1cc(C)c(S(C)(=O)=O)c(C)c1 [Methiocarb-sulfone] | 5.28 min |
| CC(C)N(C(=O)COc1nnc(C(F)(F)F)s1)c1ccc(F)cc1 [Flufenacet] | 10.1 min |
| CCN(CC)C(=O)SCc1ccc(Cl)cc1 [Thiobencarb] | 11.4 min |
| Cc1nnc2n1-c1ccc(Cl)cc1C(c1ccccc1)=NC2 [Alprazolam] | 8.36 min |
| CCCCCn1nc(C(=O)NC(C(N)=O)C(C)C)c2ccccc21 (stereo not given) [AB-PINACA] | 10.5 min |
| COP(=O)(OC)OC(=CCl)c1ccc(Cl)cc1Cl [Dimethylvinphos] | 9.86 min |
| COP(=O)(OC)OC(Br)C(Cl)(Cl)Br (stereo not given) [Naled] | 8.55 min |
| CC(N)Cc1ccc(F)cc1 (stereo not given) [Amphetamine (4-F-)] | 4.39 min |
| O=C(c1cccc2ccccc12)c1cn(CCN2CCOCC2)c2cccc(O)c12 [JWH-200-M-4-OH-Ind] | 10.1 min |
| CCc1cc2c(s1)-n1c(C)nnc1CN=C2c1ccccc1 [Deschloroetizolam] | 8.43 min |
| O=c1[nH]c2ccccc2n1C1CCN(CCCC(c2ccc(F)cc2)c2ccc(F)cc2)CC1 [Pimozide] | 8.73 min |
| O=C(Nc1ccccc1)Nc1cnns1 [Thidiazuron] | 7.17 min |
